This is an account of results in patent US20030065039A1, “Biologically active 1,3-bis-aromatic-prop-2-en-1-ones, 1,3-bis-aromatic-propan-1-ones, and 1,3-bis-aromatic-prop-2-yn-1-ones” (Statens Serum Institute, priority 1997, published 2003).

The nature of data set [1]: Preliminary 14 days oral toxicity study in rats. The class given is in vivo. The note with it: highest dose level 1000 mg/kg/day. The protocol:
A preliminary 14 days oral toxicity study in rats was carried out with 6 compounds. Observations included clinical signs, body weights, food intake, haematology, clinical chemistry and macroscopic pathology.

The test system of data set [2] is Plasmodium falciparum. Briefly: Plasmodium falciparum Assay. The data set is classed as cell-based. The note with it: Plasmodium falciparum; 3-H-hypoxanthine incorporation, 48 hours; read-out: Plasmodium IC50 ± SD. Summed up:
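Parasitized erythrocytes (~1% parasitemia, 5×10^8/ml) cultured 48 h in RPMI with test compound, with 3H-hypoxanthine added for the last 24 h. Growth inhibition read as 3H-hypoxanthine incorporation into parasite DNA by liquid scintillation; uninfected and untreated infected cultures run in parallel.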

The test system of data set [3] is human lymphocytes. Briefly: Lymphocyte Proliferation Assay. The class given is cell-based. The note with it: Lymphocyte; PHA provoked proliferation of human lymphocytes; read-out: Lymphocytes IC50 ± SD. Summed up: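 Ficoll-isolated human blood mononuclear cells (0.63×10^5/ml) in RPMI 1640 with 5% FCS were cultured in triplicate with test compound and PHA or PPD for 3 or 7 days. Proliferation measured by ^3H-thymidine incorporation over the final 24 h; triplicate median recorded.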

In data set [4] the test system is Leishmania promastigotes. Briefly: Leishmania promastigotes Assay. The class given is cell-based. The conditions noted are these: Leishmania; promastigotes, 3H-thymidine uptake; read-out: Leishmania IC50 ± SD. Summed up: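 L. major (WHO Iran vaccine strain) and L. donovani MHOM/KE/85/NLB 274 promastigotes (3×10^6/ml, day 3 and 6 cultures) exposed to compound 2 h at 26 °C, then 3H-thymidine 18 h; incorporation counted by scintillation. Microscopic counts and flagellar motility also assessed.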

In data set [5] the test system is human embryonic lung (HEL) cells. Description: Cytotoxicity in human embryonic lung (HEL) cells. The class given is cell-based. The conditions noted are these: HEL cell growth reduced by 50%; values given as fractions.
Data set [6] concerns Reovirus-1. Description: Antiviral activity in Vero cell cultures. The data set is classed as cell-based. The note with it: Vero cells; values given as fractions. The protocol:
(§1) IC50 values are determined by the virus plaque formation and/or the virus cytopathic assay using standard methods well-known in the art.
(§2) In the following is reported the results from a Vero cell culture infected with different viruses. The cell culture used as well as the methods applied are well known to a person skilled in the art.

The subject of data set [7] is Coxsackie virus B4. Description: Antiviral activity in Vero cell cultures. The class given is cell-based. The conditions noted are these: Vero cells; values given as fractions. Here is the method:
as §1, §2

In data set [8] the test system is Simliki forest virus. Briefly: Antiviral activity in Vero cell cultures. The conditions noted are these: Vero cells; values given as fractions. The data set is classed as cell-based. The protocol:
as §1, §2

Data set [9] relates to Parainfluenza-3 Virus. Briefly: Antiviral activity in Vero cell cultures. The data set is classed as cell-based. The conditions noted are these: Vero cells; values given as fractions. The protocol: as §1, §2
In data set [10] the test system is Sindbis virus. Briefly: Antiviral activity in Vero cell cultures. The data set is classed as cell-based. The note with it: Vero cells; values given as fractions. The protocol:
as §1, §2

Data set [11] has as its system Vero cell cultures. Description: Cytotoxicity in Vero cell cultures. The data set is classed as cell-based. The conditions noted are these: Vero cells; values given as fractions, footnote a not given.
Excerpt: as §2

In data set [12] the test system is cytomegalovirus AD-169 strain. Briefly: Activity against cytomegalovirus in HEL cells (plaque formation). The class given is cell-based. The note with it: virus plaque formation reduced by 50%, 100 PFU, values given as fractions. Here is the method:
as §1

Data set [13] relates to cytomegalovirus Davis strain. The description is as above. The class given is cell-based. The conditions noted are these: virus plaque formation reduced by 50%, 100 PFU, values given as fractions. The protocol:
as §1

For data set [14], the system named is mouse lymphoma tk. Description: Mouse lymphoma tk assay. The text has this: Following selection of SBC-35ma (3,5-dimethoxy-4′-allyloxychalcone) as a development candidate, this compound was studied in vitro using the chromosomal aberration assay with CHO cells and the mouse lymphoma tk assay.
In the screening design, three known drugs were included, namely chloroquine, pyrimethamine and artesunate.

Data set [15] has as its target T1, succinate dehydrogenase of Helicobacter pylori (Helicobacter pylori, UniProt O06913).
T1 construct: endogenous in cells; host or cells: Helicobacter pylori (preparation for the SDH measurement not described; sonicate mentioned for FRD)
T1 sequence (O06913 1-714): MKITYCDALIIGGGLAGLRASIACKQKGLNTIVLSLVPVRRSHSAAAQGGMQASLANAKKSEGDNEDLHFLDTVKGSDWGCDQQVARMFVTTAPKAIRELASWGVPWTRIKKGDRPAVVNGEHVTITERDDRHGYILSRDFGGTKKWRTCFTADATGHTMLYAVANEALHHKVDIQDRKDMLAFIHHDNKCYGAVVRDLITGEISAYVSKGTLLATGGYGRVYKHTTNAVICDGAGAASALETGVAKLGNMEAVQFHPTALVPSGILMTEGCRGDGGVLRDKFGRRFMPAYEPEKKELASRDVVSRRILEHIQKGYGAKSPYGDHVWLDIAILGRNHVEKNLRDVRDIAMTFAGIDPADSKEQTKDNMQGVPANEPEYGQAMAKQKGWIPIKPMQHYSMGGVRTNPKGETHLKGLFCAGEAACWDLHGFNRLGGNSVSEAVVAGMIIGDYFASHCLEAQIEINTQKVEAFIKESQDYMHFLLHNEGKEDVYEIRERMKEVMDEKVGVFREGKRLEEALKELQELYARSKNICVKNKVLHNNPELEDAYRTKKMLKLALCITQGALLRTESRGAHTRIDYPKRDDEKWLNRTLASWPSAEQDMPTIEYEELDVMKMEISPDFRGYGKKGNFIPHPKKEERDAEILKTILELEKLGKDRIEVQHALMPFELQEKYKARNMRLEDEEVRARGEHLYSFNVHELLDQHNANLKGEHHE
T1 sequence (O06914 1-245 partner): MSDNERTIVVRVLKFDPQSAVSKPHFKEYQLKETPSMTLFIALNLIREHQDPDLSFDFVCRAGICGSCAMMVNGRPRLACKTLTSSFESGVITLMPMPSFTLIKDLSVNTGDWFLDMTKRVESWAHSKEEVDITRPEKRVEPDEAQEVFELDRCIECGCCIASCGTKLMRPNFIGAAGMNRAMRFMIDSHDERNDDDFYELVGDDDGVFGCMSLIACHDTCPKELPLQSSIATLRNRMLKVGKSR
T1 sequence (O06912 1-255 partner): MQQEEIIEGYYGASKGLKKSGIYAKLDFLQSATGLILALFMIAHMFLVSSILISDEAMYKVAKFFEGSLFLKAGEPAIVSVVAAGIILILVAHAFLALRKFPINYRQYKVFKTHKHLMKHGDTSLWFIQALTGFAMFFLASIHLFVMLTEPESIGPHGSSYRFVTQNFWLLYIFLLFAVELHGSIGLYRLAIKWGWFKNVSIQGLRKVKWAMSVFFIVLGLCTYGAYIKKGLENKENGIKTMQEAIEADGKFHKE
The class given is biochemical.

Data set [16] addresses T2, Helicobacter pylori fumarate reductase (Helicobacter pylori, UniProt O06913).
T2 construct: Membrane associated proteins were solubilized from the pellet in 150 mM KCl, pH 7.0; endogenous in cells; host or cells: Helicobacter pylori 007 strain; KCl-solubilised fraction (or sonicate supernatant)
T2 sequence (O06913 1-714): T1 sequence (O06913 1-714)
T2 sequence (O06914 1-245 partner): T1 sequence (O06914 1-245 partner)
T2 sequence (O06912 1-255 partner): T1 sequence (O06912 1-255 partner)
The class given is biochemical. Here is the method:
1) Extraction of soluble FRD: Bacteria were harvested by centrifugation at 18,000 g for 10 min at 4° C., and were washed 2 times in an isotonic phosphate saline buffer (50 mM sodium phosphate, pH 7.2, 90 mM NaCl, 5 mM Kcl). Bacteria were lysed in 5 mM Tris-HCl, pH 7.4, for 15 minutes, and centrifuged 18,000 g for 10 minutes. Membrane associated proteins were solubilized from the pellet in 150 mM KCl, pH 7.0, in ice bath for 60 min, and then the supernatant was collected after centrifugation (18,000 g for 10 minutes) for the measurement of FRD activity.
2) Extraction of FRD by sonication: Bacteria were harvested by centrifugation at 18,000 g for 10 min at 4° C., were sonicated, and then the supernatant was collected after centrifugation (18,000 g for 10 minutes) for the measurement of FRD activity.
NADH-FRD activity was determined as the rate of NADH-oxidation upon addition of 1 mM fumarate in the KCl-solubilized fraction or sonicated fraction. The reaction was monitored spectrophotometrically at 340 nm (∈=6.2 mM^−1 cm^−1) using 100 μM NADH and usually 3 mg protein in both reference and sample cuvettes. The measurement was carried out in a Shimadzu UV-190 double-beam spectrophotometer. Protein concentrations were determined using a Bio-Rad protein assay (Bio-Rad Laboratories, 200 Alfred Nobel Dr. Hercules, Calif. 94547, USA).
KCl solubilised fraction of bacteria was incubated with different concentrations of various oxygenated chalcones at 28° C. and the remaining FRD activity was measured. The IC50 values were determined as the concentration at which 50% of the activity was inhibited.

Like-named read-outs stand apart in the source and are kept apart here.

A word on the IC50: it is the concentration that gives 50% inhibition. Regarding `O=C(/C=C/c1ccccc1)c1ccc(O)cc1` [4′-OH, 4′-hydroxychalcone], the toxic effects result in data set [1] is recorded as “inconclusive effect”. For the same compound, the IC50 in [2] was determined as 21 µM; in [3] it was 28 ± 1 µM; in data set [4], 16 ± 1 µM.
For `COc1ccc(/C=C/C(=O)c2ccc(O)cc2)c(OC)c1` [24m4′hc, 2,4-dimethoxy-4′hydroxychalcone], the toxic effects entry in data set [1] is reported as “No toxic effects”. The IC50 came out at 11 µM in data set [2], 71 ± 5 µM in data set [3] and 48 ± 3 µM in data set [4].
Consider `C=CCOc1ccc(C(=O)/C=C/c2ccc(OC)c(OC)c2)cc1` [34m4′ac, 3,4-dimethoxy-4′-allyloxychalcone], for which the toxic effects entry in data set [1] is listed as “No toxic effects”. Moreover, the “Cytotoxicity CC50” value in [5] is given as <1/30. The IC50 in data set [2] is 32 µM; in data set [3] it was 51 ± 6 µM; in data set [4], 60 ± 5 µM. Besides, in data set [6], the “Minimum inhibitory concentration, Reovirus-1” value is recorded as <1/100. Besides, the “Minimum inhibitory concentration, Coxsackie virus B4” value in data set [7] is recorded as 1/60000. Further, the “Minimum inhibitory concentration, Simliki forest virus” value in [8] is reported as 1/2000. Moreover, the “Minimum inhibitory concentration, Parainfluenza-3 Virus” value in data set [9] was 1/6000. For the same compound, the “Minimum inhibitory concentration, Sindbis virus” value in [10] is given as 1/60000. Moreover, the “Minimum Cytotoxic Concentration” value in data set [11] is listed as <1/100. Moreover, the “Antiviral activity IC50, AD-169 strain, Assay 1” value in data set [12] was <1/30. For the same compound, the “Antiviral activity IC50, Davis strain, Assay 1” value in data set [13] is 1/100.
With `CCN(CC)CCCC(C)Nc1ccnc2cc(Cl)ccc12` (stereo not shown) [Chloroquine, chloroquine], in data set [14] (with S9 mix), the “mouse lymphoma tk assay, screening design” value (“mouse lymphoma tk assay” for short) is “questionable negative”.
Turning to `O=C(O)/C=C/C(=O)O` [Fumarate], in data set [15], the “activity of succinate dehydrogenase” value is recorded as “concentration-dependent inhibitory effect”.
For `C[C@H]1[C@H](OC(=O)CCC(=O)O)O[C@@H]2O[C@@]3(C)CC[C@H]4[C@H](C)CC[C@@H]1[C@@]24OO3` [artesunate], in [14], the “mouse lymphoma tk assay” value is recorded as “positive”.
In the case of `CCc1nc(N)nc(N)c1-c1ccc(Cl)cc1` [pyrimethamine], the “mouse lymphoma tk assay” value in data set [14] is on record as “negative”.
On to antimycin [reference compound], for which the “activity of succinate dehydrogenase” value in data set [15] is on record as “could no inhibit it”. Also, the “activity of NADH-fumarate reductase” value in data set [16] is listed as “could not inhibit it”.
For malonate, in data set [15], the “activity of succinate dehydrogenase” value is “concentration-dependent inhibitory effect”.
